In the first test the test system is CD8+ T cells from PBMC. The experiment in a line: IFN-γ ELISpot, PBMC-derived in vitro expanded CD8+ T cell lines. The test is classed as cell-based, human. On the set-up: key to T cell recognition by PBMC from a T1D donor: E: T cell recognition by PBMC from a T1D donor was tested and verified; see Figure 5. As to conditions: A2 Set Peptides; PBMC T cell lines; responding donors/donors tested.
Take AILETAPKEV [compound 129, 17]: the “T1D Donor T cell response” value is recorded as 0/4 and the “non-T1D Donor T cell response” value was 0/2. Taken in the same sequence, the figures for ALAEEVEQV [compound 87, 12] were 0/4 and 0/2. In the case of ALANHLIKV [compound 96, 13], the “T1D Donor T cell response” value is recorded as 2/4 and the “non-T1D Donor T cell response” value is reported as 0/2.

As for ALAPAPPQV [compound 127, 16], the “T1D Donor T cell response” value is given as 0/4 and the “non-T1D Donor T cell response” value is 0/2. The corresponding values for ALDGPPIKV [compound 80, 11] are 1/5 and 0/2.

In the case of ALKPLAAAL [compound 138, 18], the “T1D Donor T cell response” value is recorded as 0/4 and the “non-T1D Donor T cell response” value is recorded as 0/2. Consider ALLDQALSNA [compound 111, 15], for which the “T1D Donor T cell response” value is listed as 0/4 and the “non-T1D Donor T cell response” value is given as 0/2.

ALLDVTPKAV [compound 140, 18]: the “T1D Donor T cell response” value is given as 0/4 and the “non-T1D Donor T cell response” value was 0/2. Taken in the same sequence, the figures for ALLETVNRL [compound 99, 13] were 0/5 and 0/2. Consider ALMEAIHSA [compound 93, 13], for which the “T1D Donor T cell response” value was 1/4 and the “non-T1D Donor T cell response” value was 0/2. Regarding ALYDNVEKL [compound 89, 12], the “T1D Donor T cell response” value is on record as 0/4 and the “non-T1D Donor T cell response” value is on record as 0/2. As for AMFDQSQIQEF [compound 116, 15], the “T1D Donor T cell response” value is reported as 1/4 and the “non-T1D Donor T cell response” value is listed as 0/2.

Take AQIALQPAL [compound 131, 17]: the “T1D Donor T cell response” value is given as 0/4 and the “non-T1D Donor T cell response” value is 0/2. The corresponding values for AQLENPAAV [compound 97, 13] are 0/4 and 0/2. Taken in the same sequence, the figures for AQTEVIATL [compound 94] were 0/5 and 0/2. Taken in the same sequence, the figures for ELNPKILAL [compound 100, 13] were 0/4 and 0/2. FIASKGVKLV [compound 86, 12]: the “T1D Donor T cell response” value was 0/5 and the “non-T1D Donor T cell response” value was 0/2. In the case of FLIRESETL [compound 109, 14], the “T1D Donor T cell response” value is 1/4 and the “non-T1D Donor T cell response” value is on record as 0/2. For FLKEPALNEA [compound 124, 16], the “T1D Donor T cell response” value is 0/4 and the “non-T1D Donor T cell response” value is 0/2. Turning to GLDDIKDLKV [peptide 112, 15], the “T1D Donor T cell response” value is recorded as 3/4 and the “non-T1D Donor T cell response” value is 0/2. The corresponding values for GLDRLNVTV [peptide 101, 14] are 4/4 and 0/2. Consider HLANIVERV [compound 141, 18], for which the “T1D Donor T cell response” value was 0/4 and the “non-T1D Donor T cell response” value is 0/2. Take HLKALTSEL [compound 114, 15]: the “T1D Donor T cell response” value is 0/5 and the “non-T1D Donor T cell response” value is on record as 0/2. Regarding HLMDQPLSV [compound 108, 14], the “T1D Donor T cell response” value is on record as 0/4 and the “non-T1D Donor T cell response” value is given as 0/2. On to HLTPSPVPV [compound 121], for which the “T1D Donor T cell response” value was 0/5 and the “non-T1D Donor T cell response” value is 0/2. As to HQNQLLSSL [compound 143, 18], the “T1D Donor T cell response” value is 0/4 and the “non-T1D Donor T cell response” value is recorded as 0/2. Taken in the same sequence, the figures for KLIQKNLAT [compound 130, 17] were 0/4 and 0/2. Taken in the same sequence, the figures for KLLDPEDVAVQL [compound 142, 18] were 0/4 and 0/2.

Consider KLQELNYNL [compound 132, 17], for which the “T1D Donor T cell response” value is reported as 0/4 and the “non-T1D Donor T cell response” value is listed as 0/2.

Take KLTENLVAL [compound 92, 12]: the “T1D Donor T cell response” value is listed as 0/5 and the “non-T1D Donor T cell response” value was 0/2.

Regarding KQFPEVIKY [compound 90, 12], the “T1D Donor T cell response” value was 0/4 and the “non-T1D Donor T cell response” value was 0/2.

Turning to KQMEQISQF [compound 137, 18], the “T1D Donor T cell response” value was 0/4 and the “non-T1D Donor T cell response” value is listed as 0/2. Taken in the same sequence, the figures for KVDEAVAVL [compound 83, 11] were 0/4 and 0/2. Taken in the same sequence, the figures for KVIEINPYL [compound 123, 16] were 0/5 and 0/2. The corresponding values for LIQDRVAEV [compound 106, 14] are 1/5 and 0/2. Consider LLDEEISRV [compound 84, 11], for which the “T1D Donor T cell response” value is 0/4 and the “non-T1D Donor T cell response” value is given as 0/2.

On to LLDVPTAAV [compound 81, 11], for which the “T1D Donor T cell response” value was 1/5 and the “non-T1D Donor T cell response” value is 0/2. As to LLSDTVQHL [compound 136, 17], the “T1D Donor T cell response” value is 0/4 and the “non-T1D Donor T cell response” value is 0/2. On to LQNPDLVSL [compound 119, 16], for which the “T1D Donor T cell response” value is recorded as 0/4 and the “non-T1D Donor T cell response” value is 0/2.

As for QLMAEKLQL [compound 115, 15], the “T1D Donor T cell response” value is on record as 0/4 and the “non-T1D Donor T cell response” value is on record as 0/2. As for QLSDVAEKL [compound 128, 17], the “T1D Donor T cell response” value is recorded as 0/4 and the “non-T1D Donor T cell response” value is reported as 0/2. Taken in the same sequence, the figures for QQQQKIIAL [compound 91, 12] were 0/5 and 0/2. With RLDDLKMTV [compound 82, 11], the “T1D Donor T cell response” value is recorded as 1/5 and the “non-T1D Donor T cell response” value was 0/2. Taken in the same sequence, the figures for RLQDELVTL [compound 110, 15] were 0/4 and 0/2.

As for RLSDAQIYV [compound 103, 14], the “T1D Donor T cell response” value was 0/4 and the “non-T1D Donor T cell response” value is on record as 0/2. Consider RLSDVQIYV [compound 102, 14], for which the “T1D Donor T cell response” value is reported as 1/4 and the “non-T1D Donor T cell response” value is on record as 0/2.

On to RLYDPTEGMVSV [compound 85, 12], for which the “T1D Donor T cell response” value is 0/4 and the “non-T1D Donor T cell response” value is recorded as 0/2. Turning to RVAEVQQVL [compound 107, 14], the “T1D Donor T cell response” value is on record as 0/5 and the “non-T1D Donor T cell response” value was 0/2. For RVIGTLEEV [compound 125, 16], the “T1D Donor T cell response” value was 0/4 and the “non-T1D Donor T cell response” value was 0/2.

The test is the same for the next values; noted with them: HPAP-A2 Pool Peptides; PBMC T cell lines; responding donors/donors tested.
ALDGPPIKV [compound 164]: the “T1D Donor T cell response” value is 0/4 and the “non-T1D Donor T cell response” value is given as 0/4. As for ALKPLAAAL [compound 169], the “T1D Donor T cell response” value is listed as 0/4 and the “non-T1D Donor T cell response” value is recorded as 0/4.

For ALLETVNRL [compound 162], the “T1D Donor T cell response” value was 0/4 and the “non-T1D Donor T cell response” value is 0/4.

For DVIEKIRYV [compound 159], the “T1D Donor T cell response” value is recorded as 0/4 and the “non-T1D Donor T cell response” value was 0/4.

For FLIEEIERL [compound 161], the “T1D Donor T cell response” value was 0/4 and the “non-T1D Donor T cell response” value is on record as 0/4. On to FTNHFLVEL [compound 165], for which the “T1D Donor T cell response” value is 0/4 and the “non-T1D Donor T cell response” value is recorded as 0/4.

Regarding IIVDIFHGL [compound 170], the “T1D Donor T cell response” value was 0/4 and the “non-T1D Donor T cell response” value is recorded as 0/4. KLLESFKI [compound 160]: the “T1D Donor T cell response” value was 0/4 and the “non-T1D Donor T cell response” value was 0/4.

In the case of KQFPEVIKY [compound 157], the “T1D Donor T cell response” value is reported as 0/5 and the “non-T1D Donor T cell response” value is recorded as 0/4. Taken in the same sequence, the figures for KVIEINPYL [compound 166] were 0/4 and 0/4. The corresponding values for NLKEAIETI [compound 163] are 0/4 and 0/4.

For RVVGTLHLL [compound 168], the “T1D Donor T cell response” value is recorded as 0/4 and the “non-T1D Donor T cell response” value is on record as 0/4.

The test is the same for the next values; noted with them: MHC-I peptides; superscript E on the peptide; F = verified with C1R-A2 cells.
Turning to ALANHLIKV, the “T cell recognition by PBMC from a T1D donor” value (shortened to “T cell recognition by PBMC”) is “ALANHLIKV ^ E”. ALMEAIHSA: the “T cell recognition by PBMC” value is given as “ALMEAIHSA ^ E”.

As to AMFDQSQIQEF, the “T cell recognition by PBMC” value was “AMFDQSQIQEF ^E, F”. With GLDDIKDLKV, the “T cell recognition by PBMC” value is given as “GLDDIKDLKV ^ E”. Turning to GLDRLNVTV, the “T cell recognition by PBMC” value is given as “GLDRLNVTV ^ E”. Turning to RLDDLKMTV, the “T cell recognition by PBMC” value is “RLDDLKMTV ^ E”. Consider RLSDVQIYV, for which the “T cell recognition by PBMC” value is on record as “RLSDVQIYV ^ E”. As to RSAAVLALL, the “T cell recognition by PBMC” value is given as “RSAAVLALL ^E,F”.

The test is the same for the next values; noted with them: PTM and unmodified native Pool Peptides (pool PTM 1), 9-mer peptides; PBMC T cell lines; responding donors/donors tested.
In the case of “QADFAIEAL [compound 150, non-modified native peptide, pool PTM A2]”, the “T1D Donor T cell response” value is recorded as 0/4 and the “non-T1D Donor T cell response” value is on record as 0/3.

The same test, now with this note: SEC (Secretory) A2 Peptides Set; PBMC T cell lines; responding donors/donors tested.
“GSHLVEALY [compound 172, secretory hormone eluted peptide, pool SEC A2]”: the “T1D Donor T cell response” value is listed as 0/4. Turning to “KEFIAWLV [compound 174, secretory hormone eluted peptide, pool SEC A2]”, the “T1D Donor T cell response” value is reported as 0/4.

Staying with this test, now noted: T1D donors, PBMC-derived lines (Figure 5J).
Consider GLDDIKDLKV [peptide 112, 15], for which the “Number of donors whose CD8 T cells recognized the peptide (IFN-γ ELISpot)” value is listed as “three of the donors”. With GLDRLNVTV [peptide 101, 14], the “Number of donors whose CD8 T cells recognized the peptide (IFN-γ ELISpot)” value is listed as “all four donors”.

Values taken from paper PMC12624573, “The antigen presentation landscape of cytokine-stressed human pancreatic islets” (Cell reports, 2025).
